From US7951382B2, “Methods for treatment of type 2 diabetes” (American Type Culture Collection, priority 2006, dated 2011)
“Also recorded” adds a separate entry of the source.

Experiments:
kinases = kinases (Homo sapiens, UniProt P15056, V600E); experiment: Invitrogen SelectScreen biochemical kinase profiling, Z'-LYTE assay; settings: kinase BRAF V599E
Text: The Z′-LYTE® biochemical assay employs a fluorescence-based, coupled-enzyme format and is based on the differential sensitivity of phosphorylated and non-phosphorylated peptides to proteolytic cleavage. The peptide substrate is labeled with two fluorophores—one at each end—that make up a FRET pair. In the primary reaction, the kinase transfers the gamma-phosphate of ATP to a single tyrosine, serine or threonine residue in a synthetic FRET-peptide. In the secondary reaction, a site-specific protease recognizes and cleaves non-phosphorylated FRET-peptides. Phosphorylation of FRET-peptides suppresses cleavage by the Development Reagent. Cleavage disrupts FRET between the donor (i.e., coumarin) and acceptor (i.e., fluorescein) fluorophores on the FRET-peptide, whereas uncleaved, phosphorylated FRET-peptides maintain FRET.
Both cleaved and uncleaved FRET-peptides contribute to the fluorescence signals and therefore to the Emission Ratio. The extent of phosphorylation of the FRET-peptide can be calculated from the Emission Ratio.
Test Compounds are screened in 1% DMSO (final) in the well. […] All ATP Solutions are diluted to a 4× working concentration in Kinase Buffer (50 mM HEPES pH 7.5, 0.01% BRIJ-35, 10 mM MgCl2, 1 mM EGTA). ATP Km apparent is previously determined using a Z′-LYTE® assay.
This control yields 100% cleaved peptide in the Development Reaction. […]

[1] = test system: STZ-induced diabetic C57BL/6 mice; experiment: Multiple low dose streptozotocin (STZ)-induced murine model of Diabetes, efficacy of D3 peptide; format: in vivo, male C57BL/6 mice; settings: for mortality / survival during the course of the study: experiment 1, to day 36, FIG. 15
Description: Peptide treatment also delayed the onset of Diabetes (mean blood glucose levels≧300 mg/dL) by approximately 14 days, and reduced peak BG levels by 40% (p<0.01) in treated animals. This naturally occurring peptide may represent a safer alternative to small molecule kinase inhibitors for the control of IDDM and associated complications.
Streptozotocin (Streptozocin, STZ, Zanosar) is a naturally occurring glucosamine-nitrosourea compound that is toxic to insulin producing beta cells in the pancreas. This alkylating agent bears enough similarity to the molecular structure of glucose to be readily transported into beta cells by the highly abundant glucose GLU2 glucose transporter protein. Once inside the cell STZ causes damage to the DNA, resulting in a loss of cellular function.
Twenty five male C57BL/6 mice aged approximately 6 weeks were randomized into 3 groups of 10, 10 and 5 animals. Beginning on day −6, non-fasting blood glucose (BG) levels for all animals were determined twice weekly using an Ascencia Contour blood glucose reader (Beyer). […] Groups 1 and 3 were intraperitoneally administered 200 μl sterile water alone. Injections continued in a similar fashion every 3 days for the duration of the experiment. Beginning on day 0, Groups 2 and 3 also received 50 mg/kg of STZ in 200 μl of sterile water via the intraperitoneal route for 5 consecutive days. Group 1 animals received a mock intraperitoneal injection of 200 μl of sterile water during the same period (see Table 17). Animals were allowed access to food and water ad libitum and this treatment schedule was followed until day 36.
In experiment 1, animals were fed normal mouse chow for the duration of the experiment and a fresh vial of STZ was used. Blood glucose measurements for each individual animal were recorded twice weekly for the duration of the experiment. The blood glucose levels in the non diabetic control animals remained stable at approximately 150 mg/dl. However, immediately following the administration of STZ to the two experimental groups, blood glucose levels increased steadily over time and reached a maximum at approximately day 15. No difference in blood glucose levels were observed between D3 treated and untreated STZ-induced animals.
For the duration of the experiment, the mean blood glucose level of normal control animals was approximately 150 mg/dl. For the purposes of this study, a blood glucose reading in STZ-induced animals more than 2-fold higher than normal (i.e. ≧300 mg/dl) was considered to indicate a diabetic animal. Using this criterion, the incidence and time to onset of diabetes in the treated and untreated STZ groups was determined. […] For both STZ groups, the onset of Diabetes began as early as day 4 post STZ administration. All of the untreated STZ animals were classed as diabetic by day 10.
In experiment 2, animals were fed a high carbohydrate diet (˜50% sucrose) for the duration of the experiment. An older stock vial of STZ was used. Blood glucose measurements for each individual animal were recorded twice weekly for the duration of the experiment. As expected, the blood glucose levels in the non diabetic control animals remained below 150 mg/dl. […] This trend was maintained for the entire duration of the experiment.
For the duration of the experiment, the mean blood glucose level of normal control animals was approximately 150 mg/dl. For the purposes of this study, a blood glucose reading in STZ-induced animals more than 2-fold higher than normal (i.e. ≧300 mg/dl) was considered to indicate a diabetic animal. Using this criterion, the incidence and time to onset of Diabetes in the treated and untreated STZ groups was determined. […] For the untreated STZ group, Diabetes onset began as early as day 8 post STZ administration, and 100% of animals were diabetic by day 18. […] By day 36 only 70% of animals in the D3 treated group were classified as diabetic. […]

[2] = test system: 12 Kinases (kinases involved in insulin receptor signaling pathways); experiment: Millipore KinaseProfiler enzyme panel; format: biochemical; settings: D3 peptide 0.1 uM and 1 uM, same 12 kinases
Description: (§1) Kinase assays were performed using the ProfilerPro kinase panel kit available from NovaScreen and were validated using the KinaseProfiler enzyme panel available from Millipore.

[3] = test system: 12 Kinases (kinases involved in insulin receptor signaling pathways); experiment: NovaScreen ProfilerPro kinase panel / screen of 59 receptors and enzymes at 1 μM; format: biochemical; settings: D3 peptide 1 μM, preliminary results
Description: as §1

[4] = experiment 1, normal mouse chow, fresh vial of STZ
[5] = experiment 2, high carbohydrate diet

kinases, sequence (P15056 whole entry V600E): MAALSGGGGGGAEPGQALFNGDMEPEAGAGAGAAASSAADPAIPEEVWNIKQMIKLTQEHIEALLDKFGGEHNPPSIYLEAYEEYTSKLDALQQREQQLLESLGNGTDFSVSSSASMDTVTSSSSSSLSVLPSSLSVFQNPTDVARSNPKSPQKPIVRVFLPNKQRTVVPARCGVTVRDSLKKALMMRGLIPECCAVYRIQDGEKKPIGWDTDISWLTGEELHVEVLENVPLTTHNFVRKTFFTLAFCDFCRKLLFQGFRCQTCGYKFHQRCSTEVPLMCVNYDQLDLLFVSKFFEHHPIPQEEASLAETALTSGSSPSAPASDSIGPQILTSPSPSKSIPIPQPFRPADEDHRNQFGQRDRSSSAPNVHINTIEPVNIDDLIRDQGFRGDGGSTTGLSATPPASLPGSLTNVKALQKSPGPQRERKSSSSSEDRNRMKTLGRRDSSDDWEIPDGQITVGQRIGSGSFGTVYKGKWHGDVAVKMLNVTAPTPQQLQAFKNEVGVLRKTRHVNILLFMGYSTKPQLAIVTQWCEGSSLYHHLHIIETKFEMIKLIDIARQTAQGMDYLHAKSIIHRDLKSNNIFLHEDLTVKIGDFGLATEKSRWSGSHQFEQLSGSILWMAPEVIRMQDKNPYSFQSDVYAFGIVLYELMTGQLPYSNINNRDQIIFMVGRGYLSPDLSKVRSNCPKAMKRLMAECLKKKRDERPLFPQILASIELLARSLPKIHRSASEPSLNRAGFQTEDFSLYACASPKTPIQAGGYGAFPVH

Which “% Inhibition mean” value (kinases) does the source give for “SGRPPMIVWFNRPFLIAVSHTHGQTILFMAKVINPVGA [D3 peptide, SGRPPMIVWFNRPFLIAVSHTHGQTILFMAKVINPVGA]” here?
The value was 99.79%.

And the “reduction of peak BG levels” value ([1]; 36-day prophylactic study, STZ-induced male C57BL/6 mice, 1 mg/kg every 3 days, p<0.01)?
Its value is 40%.

What about the “delay of the onset of Diabetes (mean blood glucose levels≧300 mg/dL)” value ([1]; 36-day prophylactic study, STZ-induced male C57BL/6 mice, 1 mg/kg of D3 peptide every 3 days) of the same sequence?
Its value is “approximately 14 days”.

What about the “time to onset or rate of disease compared to untreated diabetic controls” value ([1]; FIG. 14, STZ treated animals (experiment 1)) of the same sequence?
Its value is “No significant differences”.

What about the “blood glucose levels, D3 treated versus untreated STZ-induced animals” value [1, 4] of the same sequence?
Its value is “No difference”.

What about the “first signs of Diabetes (blood glucose ≧300 mg/dl), day post STZ administration” value [1, 4] of the same sequence?
The value was 4 days.

What about the “rate of disease progression (slope of the graph) versus untreated STZ group” value [1, 4] of the same sequence?
The value was “essentially similar”.

What about the “time to establish Diabetes in 100% of animals” value [1, 4] of the same sequence?
Its value is 15 days.

What about the “mortality / survival during the course of the study” value [1] of the same sequence?
Its value is “increases survival”.

What about the “mortality / survival during the course of the study” value ([1]; listed as D3) of the same sequence?
Its value is “no mortality was observed”.

What about the “animals classified as diabetic by day 36” value [1, 5] of the same sequence?
Its value is 70%.

And the “deaths from diabetic complications or toxic events related to peptide or STZ treatment” value [1, 5]?
Its value is “No animals succumbed to diabetic complications or experienced any toxic events”.

What about the “delay of first signs of diabetes versus untreated animals” value [1, 5] of the same sequence?
Its value is “four”.

And the “rate of disease progression (slope of the graph)” value [1, 5]?
The value was “much less pronounced”.

What about the “mean blood glucose levels, D3 treated versus untreated STZ-induced animals” value ([1]; experiment 2, high carbohydrate diet (~50% sucrose), older stock vial of STZ, 36 days, FIG. 16) of the same sequence?
Its value is “higher than those observed in diabetic animals treated with D3 peptide; also recorded: marked reduction”.

What about the “day on which significant differences (p≦0.05) in mean blood glucose versus untreated diabetic animals were first observed” value ([1]; experiment 2, high carbohydrate diet, D3 peptide every 3 days) of the same sequence?
Its value is 10 days.

And the “inhibition of kinases of the panel (confirmation)” value [2]?
The value was “specific inhibition activity on 4 out of 7 kinases”.

What about the “inhibition of kinases of the panel” value [3] of the same sequence?
The value was “specific inhibition activities to 7 kinases”.
